Test results taken from patent US12331046B2, “CTPS1 inhibitors and uses thereof” (Nimbus Clotho, Inc., priority 2020, dated 2025).
Where a name gives a salt, the structure may show the parent alone.

Molecular target: human CTPS1 (Homo sapiens (Human), UniProt P17812)
Experiment: hCTPS1 biochemical assay (ADP-Glo)
Details: hCTPS1 25 nM, ATP 120 uM, UTP 160 uM, GTP 60 uM, L-Glutamine 100 uM, 25 degrees C

Chain of human CTPS1 (P17812 whole entry): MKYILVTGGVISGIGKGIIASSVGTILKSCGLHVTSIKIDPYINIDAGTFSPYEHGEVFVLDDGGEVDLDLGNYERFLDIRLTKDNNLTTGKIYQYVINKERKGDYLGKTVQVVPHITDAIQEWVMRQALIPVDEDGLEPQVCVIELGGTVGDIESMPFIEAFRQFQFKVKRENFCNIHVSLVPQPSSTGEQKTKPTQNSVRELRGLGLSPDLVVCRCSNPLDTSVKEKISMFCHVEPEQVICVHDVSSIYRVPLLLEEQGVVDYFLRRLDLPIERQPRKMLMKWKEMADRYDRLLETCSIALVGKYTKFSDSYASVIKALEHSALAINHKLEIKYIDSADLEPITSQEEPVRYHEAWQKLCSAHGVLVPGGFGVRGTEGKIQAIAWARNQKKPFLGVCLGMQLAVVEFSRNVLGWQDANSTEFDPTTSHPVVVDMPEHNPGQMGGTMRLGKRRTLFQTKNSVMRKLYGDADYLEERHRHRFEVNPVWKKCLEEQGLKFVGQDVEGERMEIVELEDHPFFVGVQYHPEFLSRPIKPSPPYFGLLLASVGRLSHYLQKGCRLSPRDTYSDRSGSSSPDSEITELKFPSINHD

With `CCOc1cncc(-c2cnc(C(=O)N[C@H](CN3C[C@H]4C[C@@H]3CO4)c3cc(NS(=O)(=O)C4CC4)ccn3)s2)n1` [I-112, N—((R)-2-((1R,4R)-2-oxa-5-azabicyclo[2.2.1]heptan-5-yl)-1-(4-(cyclopropanesulfonamido)pyridin-2-yl)ethyl)-5-(6-ethoxypyrazin-2-yl)thiazole-2-carboxamide] as the compound, how does the IC50 read?
Its IC50 is < 100 nM.

Which IC50 does the source give for `CCOc1cncc(-c2cnc(C(=O)N[C@H](CCCN(C)C)c3cc(NS(=O)(=O)C4CC4)ccn3)s2)n1` [I-156, (R)—N-(1-(4-(cyclopropanesulfonamido)pyridin-2-yl)-4-(dimethylamino)butyl)-5-(6-ethoxypyrazin-2-yl)thiazole-2-carboxamide] here?
Its IC50 is < 100 nM.

Which IC50 does the source give for `CCOc1cncc(-c2cnc(C(=O)N[C@H](CN3CCCC3)c3cc(NS(=O)(=O)C4CC4)ccn3)s2)n1` [I-199, (R)—N-(1-(4-(cyclopropanesulfonamido)pyridin-2-yl)-2-(pyrrolidin-1-yl)ethyl)-5-(6-ethoxypyrazin-2-yl)thiazole-2-carboxamide] here?
Its IC50 is < 100 nM.

For `CCOC[C@H](NC(=O)c1ncc(-c2cncc(OCC)n2)s1)c1cc(NS(=O)(=O)C2CC2)ccn1` [I-96, (R)—N-(1-(4-(cyclopropanesulfonamido)pyridin-2-yl)-2-ethoxyethyl)-5-(6-ethoxypyrazin-2-yl)thiazole-2-carboxamide], which IC50 is on record?
The IC50 was < 100 nM.

How did the IC50 turn out when `CCOc1cncc(-n2cc(C(=O)NCc3cc(NS(=O)(=O)C4CC4)ccn3)cn2)n1` [I-244] was run?
Its IC50 is 100 to 1000 nM.

With `C[C@@H]1Cc2nc(C(=O)NCc3cc(NS(=O)(=O)C4CC4)ccn3)cnc2N(C2CCC2)C1` [I-264, (R)-5-cyclobutyl-N-((4-(cyclopropanesulfonamido)pyridin-2-yl)methyl)-7-methyl-5,6,7,8-tetrahydropyrido[2,3-b]pyrazine-2-carboxamide] as the compound, how does the IC50 read?
Its IC50 is ≥ 1000 nM.

For `CCOc1cncc(-c2ccc(C(=O)NCc3nccc(NS(=O)(=O)C4CC4)c3OC)c(F)c2)n1` [I-257, N-[(4-cyclopropanesulfonamido-3-methoxypyridin-2-yl)methyl]-4-(6-ethoxypyrazin-2-yl)-2-fluorobenzamide], which IC50 is on record?
The IC50 was < 100 nM.

How did the IC50 turn out when `CCOc1cncc(-c2ccc(C(=O)NCc3cccc(NS(=O)(=O)C(F)(F)F)c3)nc2)n1` [I-53, 5-(6-ethoxypyrazin-2-yl)-N-[[3-(trifluoromethanesulfonamido)phenyl]methyl] pyridine-2-carboxamide] was run?
Its IC50 is < 100 nM.

Which IC50 does the source give for `CCOc1cncc(-c2cnc(C(=O)NC(COC)c3cc(NS(=O)(=O)C4CC4)ccn3)s2)n1` (centres unmarked) [I-194] here?
The IC50 was < 100 nM.

With `CCOc1cncc(-c2cnc(C(=O)N[C@@H](CN3C[C@@H]4C[C@H]3CO4)c3cc(NS(=O)(=O)C4CC4)ccn3)s2)n1` (single isomer, unassigned) [I-102] as the compound, how does the IC50 read?
The IC50 was < 100 nM.

With `O=C(NC1(c2csc(NS(=O)(=O)C3CC3)n2)CC1)c1ccc2ccccc2c1` [I-1, N-(1-(2-(cyclopropanesulfonamido)thiazol-4-yl)cyclopropyl)-2-naphthamide] as the compound, how does the IC50 read?
The IC50 was 100 to 1000 nM.

How did the IC50 turn out when `Cc1nc(C(=O)NCc2cc(NS(=O)(=O)C3CC3)ccn2)cnc1N1CCC[C@@H](C(F)(F)F)C1` [I-55] was run?
The IC50 was 100 to 1000 nM.

How did the IC50 turn out when `CCOc1cncc(-c2cnc(C(=O)N[C@@H](CCCN(C)C)c3cc(NS(=O)(=O)C4CC4)ccn3)s2)n1` [I-155, (S)—N-(1-(4-(cyclopropanesulfonamido)pyridin-2-yl)-4-(dimethylamino)butyl)-5-(6-ethoxypyrazin-2-yl)thiazole-2-carboxamide] was run?
The IC50 was < 100 nM.

Which IC50 does the source give for `CCOc1cncc(-n2cnc(C(=O)NCc3cc(NS(=O)(=O)C4CC4)ccn3)c2)n1` [I-238] here?
The IC50 was 100 to 1000 nM.

Which IC50 does the source give for `CCOc1cncc(-c2ccc(C(=O)N3CCCC3c3ccnc(NS(=O)(=O)C4CC4)n3)nc2)n1` (stereo in doubt) [I-47, N-[4-[(2R)-1-[5-(6-ethoxypyrazin-2-yl)pyridine-2-carbonyl]pyrrolidin-2-yl]pyrimidin-2-yl]cyclopropanesulfonamide] here?
Its IC50 is ≥ 1000 nM.

For `CCOc1cncc(-c2cnc(C(=O)N3CCC[C@H]3c3ccnc(NS(=O)(=O)C4CC4)n3)s2)n1` [I-271, N-[4-[(2S)-1-[5-(6-ethoxypyrazin-2-yl)-1,3-thiazole-2-carbonyl]pyrrolidin-2-yl]pyrimidin-2-yl]cyclopropanesulfonamide], which IC50 is on record?
The IC50 was < 100 nM.

Which IC50 does the source give for `CCOc1cncc(-c2ccc3c(c2)CN(C(CC)c2csc(NS(=O)(=O)C4CC4)n2)C3=O)n1` (centres unmarked) [I-6, N-(4-(1-(5-(6-ethoxypyrazin-2-yl)-1-oxoisoindolin-2-yl)propyl)thiazol-2-yl)cyclopropanesulfonamide] here?
The IC50 was < 100 nM.

With `CCOc1cncc(-c2cnc(C(=O)N[C@@H](CN3CCN(C)CC3)c3cc(NS(=O)(=O)C4CC4)ccn3)s2)n1` (single isomer, unassigned) [I-191] as the compound, how does the IC50 read?
The IC50 was < 100 nM.

Which IC50 does the source give for `CCOc1cncc(-c2cnc(C(=O)N[C@H](CCN3CC[C@@H](F)C3)c3cc(NS(=O)(=O)C4CC4)ccn3)s2)n1` [I-127, N—((R)-1-(4-(cyclopropanesulfonamido)pyridin-2-yl)-3-((R)-3-fluoropyrrolidin-1-yl)propyl)-5-(6-ethoxypyrazin-2-yl)thiazole-2-carboxamide] here?
Its IC50 is < 100 nM.

`CCOc1cncc(-c2ccc(C(=O)NCc3cc(NS(=O)(=O)C4CC4)ccn3)c(=O)[nH]2)n1` [I-59] was tested. Which IC50 did it give?
The IC50 was 100 to 1000 nM.

How did the IC50 turn out when `O=C(NCc1cc(NS(=O)(=O)C2CC2)ccn1)c1ncc(-c2cncc(C(F)(F)F)c2)s1` [I-251, N-((4-(cyclopropanesulfonamido)pyridin-2-yl)methyl)-5-(5-(trifluoromethyl)pyridin-3-yl)thiazole-2-carboxamide] was run?
The IC50 was 100 to 1000 nM.

`CCOc1cncc(-c2cnc(C(=O)N3CCNC[C@@H]3c3cc(NS(=O)(=O)C4CC4)ccn3)s2)n1` [I-212, (R)—N-(2-(1-(5-(6-ethoxypyrazin-2-yl)thiazole-2-carbonyl)piperazin-2-yl)pyridin-4-yl)cyclopropanesulfonamide] was tested. Which IC50 did it give?
The IC50 was < 100 nM.

Which IC50 does the source give for `CCOc1cncc(-c2cnc(C(=O)N[C@@H](CN3CCOCC3)c3cccc(NS(=O)(=O)C(F)F)c3)s2)n1` [I-247, (R)—N-(1-(3-((difluoromethyl)sulfonamido)phenyl)-2-morpholinoethyl)-5-(6-ethoxypyrazin-2-yl)thiazole-2-carboxamide] here?
The IC50 was < 100 nM.

For `CCc1nc2cc(C(=O)NCc3cc(NS(=O)(=O)C4CC4)ccn3)ccc2[nH]c1=O` [I-171, N-((4-(cyclopropanesulfonamido)pyridin-2-yl)methyl)-3-ethyl-2-oxo-1,2-dihydroquinoxaline-6-carboxamide], which IC50 is on record?
Its IC50 is ≥ 1000 nM.

With `CCOc1cncc(-c2cnc(C(=O)N[C@H](CN(C)C)c3cc(NS(=O)(=O)C4CC4)ccn3)s2)n1` (single isomer, unassigned) [I-233] as the compound, how does the IC50 read?
Its IC50 is < 100 nM.

Which IC50 does the source give for `CCc1nc2ccc(C(=O)NCc3cc(NS(=O)(=O)C4CC4)ccn3)cc2[nH]c1=O` [I-180, N-((4-(cyclopropanesulfonamido)pyridin-2-yl)methyl)-2-ethyl-3-oxo-3,4-dihydroquinoxaline-6-carboxamide] here?
Its IC50 is ≥ 1000 nM.

How did the IC50 turn out when `CCOc1cncc(-c2cnc(C(=O)N3CCNC[C@H]3c3cc(NS(=O)(=O)C4CC4)ccn3)s2)n1` [I-211, (S)—N-(2-(1-(5-(6-ethoxypyrazin-2-yl)thiazole-2-carbonyl)piperazin-2-yl)pyridin-4-yl)cyclopropanesulfonamide] was run?
Its IC50 is 100 to 1000 nM.

For `CCOc1cncc(-c2cnc(C(=O)NC(CCCN(C)C)c3cc(NS(=O)(=O)C4CC4)ccn3)s2)n1` (centres unmarked) [I-173, N-(1-(4-(cyclopropanesulfonamido)pyridin-2-yl)-4-(dimethylamino)butyl)-5-(6-ethoxypyrazin-2-yl)thiazole-2-carboxamide, formic acid salt], which IC50 is on record?
Its IC50 is < 100 nM.

Which IC50 does the source give for `CCOc1cncc(-c2cnc(C(=O)N[C@H](CCN3CCOCC3)c3cc(NS(=O)(=O)C4CC4)ccn3)s2)n1` [I-164, (R)—N-(1-(4-(cyclopropanesulfonamido)pyridin-2-yl)-3-morpholinopropyl)-5-(6-ethoxypyrazin-2-yl)thiazole-2-carboxamide] here?
The IC50 was < 100 nM.

For `CCOc1cncc(-c2cnc(C(=O)N[C@H](c3cc(NS(=O)(=O)C4CC4)ccn3)[C@@H]3CCOC3)s2)n1` (single isomer, unassigned) [I-94], which IC50 is on record?
The IC50 was < 100 nM.

For `CCOc1cncc(-c2cnc(C(=O)N3CCNCC3c3cc(NS(=O)(=O)C4CC4)ccn3)s2)n1` (centres unmarked) [I-223, N-(2-(1-(5-(6-ethoxypyrazin-2-yl)thiazole-2-carbonyl)piperazin-2-yl)pyridin-4-yl)cyclopropanesulfonamide], which IC50 is on record?
The IC50 was 100 to 1000 nM.

For `CCOc1cncc(-c2cnc(C(=O)N[C@H](CN3CCN(C(C)C)CC3)c3cc(NS(=O)(=O)C4CC4)ccn3)s2)n1` (single isomer, unassigned) [I-121], which IC50 is on record?
Its IC50 is < 100 nM.

With `CCOc1cncc(-c2cnc(C(=O)N3CCC[C@@H]3c3cncc(NS(=O)(=O)C4CC4)c3)s2)n1` [I-225, (R)—N-(5-(1-(5-(6-ethoxypyrazin-2-yl)thiazole-2-carbonyl)pyrrolidin-2-yl)pyridin-3-yl)cyclopropanesulfonamide] as the compound, how does the IC50 read?
The IC50 was < 100 nM.

For `COC1CN(c2cncc(-c3ccc(C(=O)NCc4cc(NS(=O)(=O)C5CC5)ccn4)cc3)n2)C1` [I-46], which IC50 is on record?
Its IC50 is ≥ 1000 nM.

Which IC50 does the source give for `CCn1ncc2ncc(-c3cnc(C(=O)NCc4cc(NS(=O)(=O)C5CC5)ccn4)s3)nc21` [I-149, N-((4-(cyclopropanesulfonamido)pyridin-2-yl)methyl)-5-(1-ethyl-1H-pyrazolo[3,4-b]pyrazin-6-yl)thiazole-2-carboxamide] here?
The IC50 was ≥ 1000 nM.

For `CCOc1cncc(-c2cnc(C(=O)N[C@@H](CN3CC(F)C3)c3cc(NS(=O)(=O)C4CC4)ccn3)s2)n1` (single isomer, unassigned) [I-203], which IC50 is on record?
Its IC50 is < 100 nM.

`CCOc1cncc(-c2cnc(C(=O)N[C@@H](C[C@@H]3CCCCN3C)c3cc(NS(=O)(=O)C4CC4)ccn3)s2)n1` (single isomer, unassigned) [I-134] was tested. Which IC50 did it give?
Its IC50 is 100 to 1000 nM.

Which IC50 does the source give for `CCOc1cncc(-c2ccc(C(=O)NCc3cc(NS(=O)(=O)C4CC4)cnn3)nc2)n1` [I-37, N-[(5-cyclopropanesulfonamidopyridazin-3-yl)methyl]-5-(6-ethoxypyrazin-2-yl)pyridine-2-carboxamide] here?
The IC50 was < 100 nM.

For `CCOc1cncc(N2CCN(C(=O)NCc3cc(NS(=O)(=O)C4CC4)ccn3)C(=O)C2)n1` [I-28], which IC50 is on record?
The IC50 was ≥ 1000 nM.

Which IC50 does the source give for `CCOc1cncc(-c2ccc(C(=O)N[C@H](CC)c3cc(NS(=O)(=O)C4CC4)ccn3)c(F)c2)n1` [I-72] here?
Its IC50 is < 100 nM.

For `CCOc1cncc(-c2cnc(C(=O)NC(CN(C)C)c3cc(NS(=O)(=O)C4CC4)ccn3)s2)n1` (centres unmarked) [I-241], which IC50 is on record?
Its IC50 is < 100 nM.
